Data published in ChEMBL document CHEMBL4390660, “Synthesis and biological evaluation of marine alkaloid-oriented β-carboline analogues” (Eur J Med Chem, 2019).
pIC50: −log10 of the molar value.

How the values were obtained:
HepG2 [1] = assay: Cytotoxicity against human HepG2 cells assessed as growth inhibition at 40 ug/mL after 72 hrs by MTT assay; type: functional; conditions: HepG2, 72 h, read-out: GI
[2] = Cytotoxicity against African green monkey MARC145 cells assessed as growth inhibition at 40 ug/mL after 72 hrs by MTT assay; type: functional; conditions: Chlorocebus aethiops, MARC145, 72 h; read-out: GI
HepG2 [3] = assay: Cytotoxicity against human HepG2 cells assessed as growth inhibition after 72 hrs by MTT assay; type: functional, cell-based; conditions: HepG2, 72 h
[4] = Cytotoxicity against human A875 cells assessed as growth inhibition at 40 ug/mL after 72 hrs by MTT assay; type: functional; conditions: A875, 72 h, read-out: GI
SGC-7901 [5] = assay: Cytotoxicity against human SGC7901 cells assessed as growth inhibition after 72 hrs by MTT assay; type: functional, cell-based; conditions: SGC-7901, 72 h
SGC-7901 [6] = assay: Cytotoxicity against human SGC7901 cells assessed as growth inhibition at 40 ug/mL after 72 hrs by MTT assay; type: functional; conditions: SGC-7901, 72 h, read-out: GI
[7] = Cytotoxicity against African green monkey MARC145 cells assessed as growth inhibition after 72 hrs by MTT assay; type: functional, cell-based; conditions: Chlorocebus aethiops, MARC145, 72 h
[8] = Cytotoxicity against human A875 cells assessed as growth inhibition after 72 hrs by MTT assay; type: functional, cell-based; conditions: A875, 72 h

| SMILES | inhibition of growth at 40 µg/mL (HepG2 [1]) [%] | inhibition of growth at 40 µg/mL [2] [%] | pIC50 (HepG2 [3]) | inhibition of growth at 40 µg/mL [4] [%] | pIC50 (SGC-7901 [5]) | inhibition of growth at 40 µg/mL (SGC-7901 [6]) [%] | pIC50 [7] | pIC50 [8] |
| --- | --- | --- | --- | --- | --- | --- | --- | --- |
| O=C(c1c[nH]c2ccccc12)c1nccc2c1[nH]c1ccccc12 | 30.5 | 34.6 | < 3.92 | 59.1 | < 3.92 | 43.2 | < 3.92 | 4.12 |
| O=C(O)c1cc2c([nH]c3ccccc32)c(C(=O)c2c[nH]c3ccccc23)n1 | 78.4 | 72 | 4.29 | 72.2 | 4.17 | 63 | 4.38 | 4.31 |
| COC(=O)c1cc2c([nH]c3ccccc32)c(C(=O)c2c[nH]c3ccccc23)n1 | 62.7 | 35.9 | < 4.00 | 36.8 | < 4.00 | 48.6 | < 4.00 | < 4.00 |
| O=C(NCc1cccnc1)c1cc2c([nH]c3ccccc32)c(C(=O)c2c[nH]c3ccccc23)n1 | 82.8 | 73.8 | 4.73 | 74.2 | 4.48 | 70.1 | 4.68 | 4.60 |
| O=C(NCc1ccccc1)c1cc2c([nH]c3ccccc32)c(C(=O)c2c[nH]c3ccccc23)n1 | 77.3 | 67.4 | 4.44 | 75.5 | 4.40 | 79 | 4.37 | 4.25 |
| COc1ccc(NC(=O)c2cc3c([nH]c4ccccc43)c(C(=O)c3c[nH]c4ccccc34)n2)cc1 | 44.8 | 42 | < 4.07 | 72.1 | < 4.07 | 41.2 | < 4.07 | 4.18 |
| O=C(NCc1ccccn1)c1cc2c([nH]c3ccccc32)c(C(=O)c2c[nH]c3ccccc23)n1 | 79.6 | 66.2 | 4.58 | 70.7 | 4.36 | 69.5 | 4.47 | 4.37 |
| Cc1ccc(CNC(=O)c2cc3c([nH]c4ccccc43)c(C(=O)c3c[nH]c4ccccc34)n2)cc1 | 63.9 | 55 | 4.18 | 27 | 4.18 | 64 | 4.14 | < 4.07 |
| CS(=O)(=O)CCNC(=O)c1cc2c([nH]c3ccccc32)c(C(=O)c2c[nH]c3ccccc23)n1 | 87.3 | 90.2 | 5.11 | 87.9 | 5.17 | 88.5 | 5.14 | 5.07 |
| O=C(NCc1ccc(F)cc1)c1cc2c([nH]c3ccccc32)c(C(=O)c2c[nH]c3ccccc23)n1 | 73.9 | 63.8 | 4.41 | 68.1 | 4.46 | 78.8 | 4.26 | 4.20 |
| O=C(NCCc1ccc(F)cc1)c1cc2c([nH]c3ccccc32)c(C(=O)c2c[nH]c3ccccc23)n1 | 72.4 | 63 | 4.41 | 33.9 | 4.47 | 76.7 | 4.31 | < 4.10 |
| COc1cc(CNC(=O)c2cc3c([nH]c4ccccc43)c(C(=O)c3c[nH]c4ccccc34)n2)ccc1O | 80.9 | 79.1 | 4.96 | 81.7 | 4.79 | 83.1 | 4.66 | 5.07 |
| COC(=O)C(CO)NC(=O)c1cc2c([nH]c3ccccc32)c(C(=O)c2c[nH]c3ccccc23)n1 (stereo not given) | 79 | 83.2 | 5.00 | 83.9 | 4.84 | 82.7 | 4.79 | 4.98 |
| COc1ccc(CCNC(=O)c2cc3c([nH]c4ccccc43)c(C(=O)c3c[nH]c4ccccc34)n2)cc1OC | 31.7 | 38.4 | < 4.12 | 0 | < 4.12 | 22.1 | < 4.12 | < 4.12 |
| O=C(NCCc1cccc(O)c1)c1cc2c([nH]c3ccccc32)c(C(=O)c2c[nH]c3ccccc23)n1 | 86.9 | 83.2 | 5.06 | 87.5 | 4.75 | 88.3 | 4.86 | 4.92 |
| O=C(NCCc1ccccc1)c1cc2c([nH]c3ccccc32)c(C(=O)c2c[nH]c3ccccc23)n1 | 82.3 | 79.8 | 4.70 | 77.1 | 4.64 | 84.5 | 4.59 | 4.35 |
| O=C(NCCc1c[nH]c2ccccc12)c1cc2c([nH]c3ccccc32)c(C(=O)c2c[nH]c3ccccc23)n1 | 74.4 | 67 | 4.39 | 77.8 | 4.41 | 76.6 | 4.36 | 4.30 |
| COc1cccc(CCNC(=O)c2cc3c([nH]c4ccccc43)c(C(=O)c3c[nH]c4ccccc34)n2)c1 | 40.1 | 48.4 | < 4.10 | 16.6 | < 4.10 | 39.3 | < 4.10 | < 4.10 |
| O=C(Nc1ccc(F)cc1)c1cc2c([nH]c3ccccc32)c(C(=O)c2c[nH]c3ccccc23)n1 | 34.8 | 47.5 | < 4.07 | 20.7 | < 4.07 | 34 | < 4.07 | < 4.07 |
| O=c1[nH]cc(F)c(=O)[nH]1 [FLUOROURACIL] | 72.6 | 66.7 | 4.18 | 61 | 4.27 | 79.9 | 3.94 | 4.21 |
